US7766979B2, “Phase transformation in molecular solids” (Avantium International B.V., priority 2004, dated 2010)
Where two headings read alike, the source gives them in different places. Blank lines part the entries; values can stand above or below the compound they belong to.

Tests used:
[1] = cited from earlier work; for temperature of conversion to the other polymorph: on heating
[2] = cited from earlier work; for phase transformation under mechanical stress (grinding, pressure): conventional grinding or pressure, literature
[3] = tribochemical treatment (high-energy grinding) with phase detection by X-ray powder diffractometry; type: physicochemical; details: for phase transformation achieved by the process (summary statement): Fritsch Pulverisette 7, hardened steel, as a solid
Protocol: The detection of the particular modification/form was conducted with X-ray powder diffractometry: X-ray diffractometer: SToe STADI P transmission diffractometer, CuKα1: 1.54060 Å, linear position-sensitive detector, measurement range 5-40°2Theta, step width 0.01°2Theta, measurement time 960 sec/step.
High-energy mill: Fritsch Pulverisette 7;
Grinding cup: hardened steel, volume 10 ml; […]
Temperature control: no temperature control […]
Amount of substance: 1.0 g

[4] = compared with form 1; cited from earlier work

- phase found after tribochemical treatment ([3]; Experiment 3.3: 1.0 g, 800 rpm, 60 minutes): transformed fully to form A
- phase transformation achieved by the process (summary statement) ([3]; listed as form C): fully to form A
Compound: CCCNC(=O)NS(=O)(=O)c1ccc(Cl)cc1 [Chlorpropamide form C, Chlorpropamide]
- thermodynamic stability of the phase ([1]; at room temperature (acetazolamide)): metastable
- phase transformation under mechanical stress (grinding, pressure) ([2]; listed as form C): partial phase transformation to form A
- phase found after tribochemical treatment ([3]; Experiment 3.2: 1.0 g, 800 rpm, 15 minutes): clearly perceptible incipient transformation to form A

- phase found after tribochemical treatment ([3]; Experiment 2.1: 1.0 g, 800 rpm, 1 hour): converted virtually fully to polymorph 1
- phase found after tribochemical treatment ([3]; Experiment 2.2: 1.0 g, 800 rpm, 5 minutes): attributable to the polymorph 2 used
- phase found after tribochemical treatment ([3]; Experiment 2.3: 1.0 g, 800 rpm, 30 minutes): polymorph 1 is isolated
- phase found after tribochemical treatment ([3]; Experiment 2.4: 1.0 g, 800 rpm, 45 minutes): polymorph 1 is likewise isolated
- phase found after tribochemical treatment ([3]; Experiment 2.5: 1.0 g, 400 rpm, 30 minutes): attributable to the polymorph 2 used
- phase found after tribochemical treatment ([3]; Experiment 2.6: 1.0 g, 400 rpm, 60 minutes): no phase transformation is observed
Compound: CC(=O)Nc1nnc(S(N)(=O)=O)s1 [polymorph 2 of acetazolamide, 5-Acetamido-1,3,4-thiadiazole-2-sulfonamide]
- temperature of conversion to the other polymorph [1]: 120-148 °C
- phase transformation under mechanical stress (grinding, pressure) ([2]; listed as polymorph 2): Nor has the transformation of polymorph 2 to polymorph 1 under mechanical stress been observed
- phase transformation achieved by the process (summary statement) [3]: virtually full transformation of polymorph 2 to polymorph 1

- phase found after tribochemical treatment ([3]; Experiment 3.1: 1.0 g, 800 rpm, 1 hour): partial transformation to form C
- phase transformation achieved by the process (summary statement) ([3]; listed as form A): partly to form C
Compound: CCCNC(=O)NS(=O)(=O)c1ccc(Cl)cc1 [Chlorpropamide form A, Chlorpropamide]
- phase transformation under mechanical stress (grinding, pressure) ([2]; listed as form A): detectable phase transformations under none of the mechanical stresses listed

Second part, the compound before the results:

Compound: Cc1ccnc(NS(=O)(=O)c2ccc(N)cc2)n1 [sulfamerazine form 1, 2-Sulfanilamido-4-methylpyrimidine]
- phase transformation under mechanical stress (grinding, pressure) [2]: neither polymorphic form undergoes a transformation
- phase found after tribochemical treatment ([3]; Example 1.1: 1.0 g, normal atmosphere, 800 rpm, 1 hour, no temperature control): Virtually full conversion of form 1 to the desired form 2
- phase found after tribochemical treatment ([3]; Example 1.2: 1.0 g, normal atmosphere, 800 rpm, 5 minutes): still attributable to form 1
- phase found after tribochemical treatment ([3]; Example 1.3: 1.0 g, normal atmosphere, 800 rpm, 15 minutes): still attributable to form 1
- phase found after tribochemical treatment ([3]; Example 1.4: 1.0 g, normal atmosphere, 800 rpm, 30 min): all of which are attributable to form 2
- phase found after tribochemical treatment ([3]; Example 1.5: 10.0 g, 7 balls, 40 ml grinding cup, 800 rpm, 15 minutes): those of form 1
- phase found after tribochemical treatment ([3]; Example 1.6: 10.0 g, 7 balls, 40 ml grinding cup, 800 rpm, 30 min): all of which are attributable to form 2
- phase found after tribochemical treatment ([3]; Example 1.7: 15.0 g, 2 balls, 40 ml grinding cup, 800 rpm, 120 and 180 min): formation of form 2
- phase transformation achieved by the process (summary statement) [3]: fully to form 2

Compound: Cc1ccnc(NS(=O)(=O)c2ccc(N)cc2)n1 [sulfamerazine form 2, 2-Sulfanilamido-4-methylpyrimidine]
- temperature of conversion to the other polymorph [1]: about 170 °C
- hygroscopicity [4]: less hygroscopic
- release of the active ingredient [4]: releases the sulfamerazine better

Compound: CC(=O)Nc1nnc(S(N)(=O)=O)s1 [polymorph 1 of acetazolamide, 5-Acetamido-1,3,4-thiadiazole-2-sulfonamide]
- phase transformation under mechanical stress (grinding, pressure) ([2]; listed as polymorph 1): not converted back to polymorph 2
- storage period without conversion back to polymorph 2 ([2]; storage): over 5 years
